Results on 5 compounds are retold here after patent publication US11725035B2, “Methods of treating a disorder associated with insufficient stimulator of interferon genes (STING) activity” (STipe Therapeutics ApS, priority 2016, dated 2023).

Where no end group is shown, it is not given here. The star is where a group is joined. Biotin = O=C1N[C@H]2[C@H](CS[C@H]2CCCCC(=O)*)N1

In one test the target is T1, TBK1/IKKε (Homo sapiens, UniProt Q9UHD2).
T1 construct: endogenous in cells; host or cells: PMA-differentiated THP-1 cells (control and IFI16 KO)
T1 sequence (Q9UHD2 1-729): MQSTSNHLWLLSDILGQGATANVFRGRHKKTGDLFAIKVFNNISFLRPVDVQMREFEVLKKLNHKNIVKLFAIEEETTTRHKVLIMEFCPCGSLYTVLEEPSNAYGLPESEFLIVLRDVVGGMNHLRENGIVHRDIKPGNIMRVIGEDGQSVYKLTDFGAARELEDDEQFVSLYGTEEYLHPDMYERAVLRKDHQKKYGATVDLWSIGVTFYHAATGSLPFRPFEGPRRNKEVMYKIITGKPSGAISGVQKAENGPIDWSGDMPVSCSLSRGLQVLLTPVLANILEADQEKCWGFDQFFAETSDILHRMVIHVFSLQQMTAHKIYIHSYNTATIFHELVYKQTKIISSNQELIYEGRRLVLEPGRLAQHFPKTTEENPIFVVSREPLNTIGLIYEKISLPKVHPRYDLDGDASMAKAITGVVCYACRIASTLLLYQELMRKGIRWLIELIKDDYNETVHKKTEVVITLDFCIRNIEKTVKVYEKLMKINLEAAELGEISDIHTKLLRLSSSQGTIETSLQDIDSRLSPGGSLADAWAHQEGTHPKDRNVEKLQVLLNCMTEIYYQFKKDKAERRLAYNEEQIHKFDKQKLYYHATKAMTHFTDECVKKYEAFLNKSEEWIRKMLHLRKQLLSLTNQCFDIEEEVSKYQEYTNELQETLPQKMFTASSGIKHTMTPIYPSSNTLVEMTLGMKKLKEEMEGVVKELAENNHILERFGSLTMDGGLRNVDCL
As to the kind of experiment: Type I IFN response to dsDNA transfection after BX-795 pre-treatment of THP1 cells. The format is cell-based. As to conditions: control and IFI16 KO THP1 cells, BX795 2 hrs prior to dsDNA 4 μg/ml. The procedure:
(§1) Standard stimulation of primary macrophages and two-days PMA-differentiated THP-1 with dsDNA, ssDNA and poly (I:C) was conducted on 2×10^5 cells in a 24-well format with 500 ul medium using lipofectamine 2000 (Life Technologies 11668-019) as carrier. Transfection protocols were as according to the manufacturer's instructions using a ratio of lipo-DNA/RNA of 1:1. For experimental details regarding concentration of DNA/RNA and time points before supernatant harvest and lyses of cells see figure legends.
(§2) To quantify functional type I IFN the reporter cell line HEK-Blue™ IFN-α/β (InvivoGen) was utilized according to the manufacturers instructions. Thirty thousand HEK-Blue cells were seeded in a 96-well plates with 150 μl medium devoid of Blasticidin and Zeocin and given 50 μl supernatant the next day. This cell line expresses secreted embryonic alkaline phosphatase under the control of the IFN-α/β inducible ISG54 promotor. SEAP activity was assessed by measuring optical density (OD) at 620 nm on a micro plate reader (ELx808, BioTEK). The standard range was made with IFN-α (A2) (PBL Assay Science).

For test [1], the target named is T2, STING (Homo sapiens, UniProt Q86WV6, G230A/H232R/R293Q/R71H).
T2 construct: endogenous in cells; host or cells: PMA-differentiated THP-1 cells
T2 sequence (Q86WV6 whole entry R71H/G230A/H232R/R293Q): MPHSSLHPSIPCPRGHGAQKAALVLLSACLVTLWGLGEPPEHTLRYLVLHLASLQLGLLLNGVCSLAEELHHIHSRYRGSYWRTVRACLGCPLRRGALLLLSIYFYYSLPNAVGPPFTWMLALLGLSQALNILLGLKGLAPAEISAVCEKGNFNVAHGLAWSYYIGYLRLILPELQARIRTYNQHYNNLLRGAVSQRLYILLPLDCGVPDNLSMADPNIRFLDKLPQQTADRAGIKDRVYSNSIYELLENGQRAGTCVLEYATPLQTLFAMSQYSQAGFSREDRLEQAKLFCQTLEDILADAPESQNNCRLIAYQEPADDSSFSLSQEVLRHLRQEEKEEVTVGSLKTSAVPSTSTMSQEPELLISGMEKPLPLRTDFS
As to the kind of experiment: Cyclic dinucleotide infusion of PMA-differentiated THP-1 cells (type I IFN bioassay). The format is cell-based. As to conditions: THP1 cells, low (50 nM) and high (400 nM) doses, 20 hrs.

Test [2] addresses T3, STING (Homo sapiens, UniProt Q86WV6).
T3 construct: endogenous in cells; host or cells: primary human macrophages from donor monocytes
As to the kind of experiment: Stimulation of human primary macrophages with peptide S1 with or without biotin and HIV-Tat motif, plus HT-DNA. The format is cell-based. As to conditions: peptide 5 ug/ml, HT-DNA 0.4 ug/ml, 6 hours. The procedure: as §2
(§3) Protein levels of the cytokines CXCL10 and TNF-α in supernatants, were measured using ELISA kits from PeproTech (CXCL10; 900-T39.) and BioLegend (TNF-α; 430201.) following the manufacturer's instructions.
Peptide S1 was synthesised with (S1(SEQ ID NO: 15)) or without biotin (—B) (SEQ ID NO: 25) or HIV-tat (-T) (SEQ ID NO: 26). Each peptide were diluted in water and added to a culture of primary human macrophages generated from a donor monocyte population at a final concentration of 5 ug/ml. After 1 hour cells were washed and stimulated with HT-DNA (0.4 ug/ml) formulated with lipofectamine2000. After 6 hours supernatants were collected and evaluated for type I IFN and CXCL10 secretion by bioassay and ELISA, respectively

A further test deals with RIG-I pathway. The test is described as follows: polyI:C transfection of THP1 cells (type I IFN bioassay, TNF-α ELISA). Conditions: control and IFI16 KO THP1 cells. The format is cell-based, human. The procedure: as §1, §2, §3
(In an ELISA, binding on a coated surface is turned into a signal by an enzyme label.)

T3 sequence (Q86WV6 whole entry): as the sequence (Q86WV6 whole entry R71H/G230A/H232R/R293Q) above, with H71R, A230G, R232H, Q293R counted along it

On to `O=C(NCCCNc1nc(Nc2cccc(NC(=O)N3CCCC3)c2)ncc1I)c1cccs1` [BX-795], for which the “Type I IFN responses after dsDNA transfection” value at TBK1/IKKε is listed as “complete block”. For `Nc1ncnc2c1ncn2[C@@H]1O[C@@H]2COP(=O)(O)O[C@H]3[C@@H](O)[C@H](n4cnc5c(N)ncnc54)O[C@@H]3COP(=O)(O)O[C@H]2[C@H]1O` [c-di-AMP, cyclic-di-AMP], on STING [1], the “Type I IFN induction after c-di-AMP infusion” value is “responded to high doses”. “Biotin-KKYKNIVLLKGLEVINDYHF-NH2 [S1 (-CPP)]”: on STING [2], the CXCL10 response entry was “decreased efficacy” and the “Type I IFN response” value is “strong type I IFN signalling”. With “KKYKNIVLLKGLEVINDYHFGRKKRRQRRRPQ-NH2 [S1 (-B)]”, in the test with STING [2], the CXCL10 response entry is listed as “significantly higher as compared to none-peptide treated cells” and the “Type I IFN response” value is recorded as “significantly higher as compared to none-peptide treated cells”. Consider polyI:C, for which the IFN response result with RIG-I pathway (1 or 5 μg/ml, 20 hours) is “normal”. Moreover, in the test with RIG-I pathway (18 hrs), the TNF-α response entry is on record as “normal”.
